Experimental data as given in patent publication US10213433B2 (AbbVie Inc., priority 2010, dated 2019).

Tests used:
Bcl-2 protein = Bcl-2 protein (Homo sapiens (Human), UniProt P10415); experiment: Bcl-2 binding TR-FRET (Time-Resolved Fluorescence-Resonance-Energy-Transfer) assay; conditions: inhibition constant for binding to Bcl-2 protein
Description: The smaller the Ki value, the greater is the binding affinity.

[1] = log D at pH 7.4 by an HPLC method; type: physicochemical
Description: Table 2 below presents data for log D (a parameter related to lipophilicity) at pH 7.4, as determined by an HPLC method, for representative compounds.

Bcl-2 protein, sequence (P10415 whole entry): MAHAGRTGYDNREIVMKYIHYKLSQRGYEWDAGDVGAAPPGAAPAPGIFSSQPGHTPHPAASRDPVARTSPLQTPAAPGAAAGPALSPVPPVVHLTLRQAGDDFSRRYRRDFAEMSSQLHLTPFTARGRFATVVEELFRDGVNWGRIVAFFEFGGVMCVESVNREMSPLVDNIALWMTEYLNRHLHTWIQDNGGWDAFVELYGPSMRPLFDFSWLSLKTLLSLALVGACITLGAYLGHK

log D [1] | Compound | Ki (Bcl-2 protein) | chromatographic logD [1]
– | CC1(C)CCC(CN2CCN(c3ccc(C(=O)NS(=O)(=O)c4ccc(OCC5COCCO5)c([N+](=O)[O-])c4)c(Oc4cnc5[nH]ccc5c4)c3)CC2)=C(c2ccc(Cl)cc2)C1 (centres unmarked) [Compound 12, 4-(4-{[2-(4-chlorophenyl)-4,4-dimethylcyclohex-1-en-1-yl]methyl}piperazin-1-yl)-N-{[4-(1,4-dioxan-2-ylmethoxy)-3-nitrophenyl]sulfonyl}-2-(1H-pyrrolo[2,3-b]pyridin-5-yloxy)benzamide] | < 0.01 nM | 5.17
– | CC1(C)CCC(CN2CCN(c3ccc(C(=O)NS(=O)(=O)c4ccc(OCC5CCOCC5)c([N+](=O)[O-])c4)c(Oc4cnc5[nH]ccc5c4)c3)CC2)=C(c2ccc(Cl)cc2)C1 [Compound 24, 4-(4-{[2-(4-chlorophenyl)-4,4-dimethylcyclohex-1-en-1-yl]methyl}piperazin-1-yl)-N-{[3-nitro-4-(tetrahydro-2H-pyran-4-ylmethoxy)phenyl]sulfonyl}-2-(1H-pyrrolo[2,3-b]pyridin-5-yloxy)benzamide] | < 0.01 nM | 5.72
– | CC1(C)CCC(CN2CCN(c3ccc(C(=O)NS(=O)(=O)c4ccc(OCC5(F)CCOCC5)c([N+](=O)[O-])c4)c(Oc4cnc5[nH]ccc5c4)c3)CC2)=C(c2ccc(Cl)cc2)C1 [Compound 37, 4-(4-{[2-(4-chlorophenyl)-4,4-dimethylcyclohex-1-en-1-yl]methyl}piperazin-1-yl)-N-({4-[(4-fluorotetrahydro-2H-pyran-4-yl)methoxy]-3-nitrophenyl}sulfonyl)-2-(1H-pyrrolo[2,3-b]pyridin-5-yloxy)benzamide] | < 0.01 nM | 5.27
– | CC1(C)CCC(CN2CCN(c3ccc(C(=O)NS(=O)(=O)c4cnc(OCC5(F)CCN(C6COC6)CC5)c(Cl)c4)c(Oc4cnc5[nH]ccc5c4)c3)CC2)=C(c2ccc(Cl)cc2)C1 [Compound 277, N-[(5-chloro-6-{[4-fluoro-1-(oxetan-3-yl)piperidin-4-yl]methoxy}pyridin-3-yl)sulfonyl]-4-(4-{[2-(4-chlorophenyl)-4,4-dimethylcyclohex-1-en-1-yl]methyl}piperazin-1-yl)-2-(1H-pyrrolo[2,3-b]pyridin-5-yloxy)benzamide] | < 0.01 nM | 5.26
– | CC1(C)CCC(CN2CCN(c3ccc(C(=O)NS(=O)(=O)c4ccc(OCC5(F)CCOCC5)c(Cl)c4)c(Oc4cnc5[nH]ccc5c4)c3)CC2)=C(c2ccc(Cl)cc2)C1 [Compound 286, N-({3-chloro-4-[(4-fluorotetrahydro-2H-pyran-4-yl)methoxy]phenyl}sulfonyl)-4-(4-{[2-(4-chlorophenyl)-4,4-dimethylcyclohex-1-en-1-yl]methyl}piperazin-1-yl)-2-(1H-pyrrolo[2,3-b]pyridin-5-yloxy)benzamide] | < 0.01 nM | 5.66
– | CC1(C)CCC(CN2CCN(c3ccc(C(=O)NS(=O)(=O)c4ccc(NCCCN(C5CC5)C5COC5)c([N+](=O)[O-])c4)c(Oc4cnc5[nH]ccc5c4)c3)CC2)=C(c2ccc(Cl)cc2)C1 [Compound 311, 4-(4-{[2-(4-chlorophenyl)-4,4-dimethylcyclohex-1-en-1-yl]methyl}piperazin-1-yl)-N-{[4-({3-[cyclopropyl(oxetan-3-yl)amino]propyl}amino)-3-nitrophenyl]sulfonyl}-2-(1H-pyrrolo[2,3-b]pyridin-5-yloxy)benzamide] | < 0.01 nM | 5.6
– | CN1CCC[C@H]1C(=O)N1CCC(COc2ccc(S(=O)(=O)NC(=O)c3ccc(N4CCN(CC5=C(c6ccc(Cl)cc6)CC(C)(C)CC5)CC4)cc3Oc3cnc4[nH]ccc4c3)cc2Cl)CC1 [Compound 312, N-[(3-chloro-4-{[1-(1-methyl-L-prolyl)piperidin-4-yl]methoxy}phenyl)sulfonyl]-4-(4-{[2-(4-chlorophenyl)-4,4-dimethylcyclohex-1-en-1-yl]methyl}piperazin-1-yl)-2-(1H-pyrrolo[2,3-b]pyridin-5-yloxy)benzamide] | < 0.01 nM | 6.47
– | CC1(C)CCC(CN2CCN(c3ccc(C(=O)NS(=O)(=O)c4ccc(OCC5(F)CCN(C6COC6)CC5)c(Cl)c4)c(Oc4cnc5[nH]ccc5c4)c3)CC2)=C(c2ccc(Cl)cc2)C1 [Compound 322, N-[(3-chloro-4-{[4-fluoro-1-(oxetan-3-yl)piperidin-4-yl]methoxy}phenyl)sulfonyl]-4-(4-{[2-(4-chlorophenyl)-4,4-dimethylcyclohex-1-en-1-yl]methyl}piperazin-1-yl)-2-(1H-pyrrolo[2,3-b]pyridin-5-yloxy)benzamide] | < 0.01 nM | 5.48
5.67 | CC1(C)CCC(CN2CCN(c3ccc(C(=O)NS(=O)(=O)c4ccc(NC[C@H]5CC[C@](C)(O)CC5)c([N+](=O)[O-])c4)c(Oc4cnc5[nH]ccc5c4)c3)CC2)=C(c2ccc(Cl)cc2)C1 [Compound 338, 4-(4-{[2-(4-chlorophenyl)-4,4-dimethylcyclohex-1-en-1-yl]methyl}piperazin-1-yl)-N-[(4-{[(cis-4-hydroxy-4-methylcyclohexyl)methyl]amino}-3-nitrophenyl)sulfonyl]-2-(1H-pyrrolo[2,3-b]pyridin-5-yloxy)benzamide] | – | –
